Laboratory results: paper PMC12181291, “Production and biochemical characterization of Pleurotus ostreatus NRC 620 laccase and evaluation of its efficacy in apple juice clarification” (Scientific Reports, 2025)

System: T1, Pleurotus ostreatus NRC 620 laccase
T1 construct: gene pox2
Conditions: pH 4.5; ABTS 0.025-3 mM; crude culture supernatant

Km: 1990 µM
Compound: CCn1c(=NN=c2sc3cc(S(=O)(=O)O)ccc3n2CC)sc2cc(S(=O)(=O)O)ccc21 [ABTS, 2, 2´-azino-bis (3-ethylbenzothiazoline-6-sulphonic acid)]
